# Measurements published in US20070202158A1, “Methods Of Administering Water-Soluble Prodrugs Of Propofol For Extended Sedation” (MGI GP, Inc., priority 2003, published 2007).
# Test system: Sprague-Dawley rats
# Experiment: Behavioral sedation rating (scale 0-4) in rats after oral, intravenous or intraduodenal prodrug
# Assay type: in vivo, rat
# Excerpt: This example compares the dose-dependent pharmacological effects of a propofol prodrug of Formula I, O-phosphonooxymethyl propofol disodium salt, on rats when administered in a single oral dose to the pharmacological effects observed after an equipotent intravenous infusion. Young adult male Sprague-Dawley rats (250-300 g, Charles River Laboratories) received oral doses of vehicle (0.12% Tris/0.25% monothioglycerol/saline; n=4, per oral gavage) or of O-phosphonooxy-methyl propofol disodium salt at doses of 100, 200, 300 and 400 mg/kg, dissolved in vehicle at 35 mg/ml (n=2 per dose) or 200 mg/ml w/v (n=2 per dose).
# The above-described pharmacological effects of oral administration of the tested prodrug were compared with those caused by an equipotent intravenous infusion: Under halothane anesthesia, young adult rats received femoral vein catheters which were exteriorized and attached to a liquid swivel via a protectant spring. About 20 minutes after catheterization, and after full behavioral recovery from halothane anesthesia, each animal was attached to an electronic infusion pump and was administered vehicle, or 5, 10, 20, 30, or 40 mg/kg of the test prodrug (n=2 per dose) in 1 ml total volume by gradual constant-rate intravenous infusion over 10 minutes. Behavioral rating as described above began immediately following the end of infusion.
# The above-described efficacy of the tested prodrug when administered orally or intravenously was compared to a mode of administration that allows for the introduction of the prodrug directly into the gut. For this “gastric bypass” experiment, young adult male Sprague Dawley rats (225-250 g body wt.) underwent implantation of intraduodenal catheters to allow for intraduodenal instillation of an aqueous buffered solution of the prodrug. Following full recovery from catheter implantation surgery, various concentrations of O-phosphonooxymethyl propofol disodium salt in vehicle, or vehicle alone, were administered via the catheter in a constant volume of 2 ml/kg body weight to yield doses of 0, 20, 30, 50, 100, 200, 300, and 400 mg/kg body weight (n=2 per dose). Behavioral assessment was conducted as described above. […] The depth and duration of sedation, and the length of unconsciousness in the higher dose groups, depended on the administered dose.
smiles,measurement,setting,value
CC(C)c1cccc(C(C)C)c1OCOP(=O)([O-])[O-].[Na+].[Na+] [O-phosphonooxymethyl propofol disodium salt],"biological potency of the peak effect, oral/intragastric relative to intravenous administration",,approximately 10%
same,intraduodenal dose causing a pharmacological effect substantially similar to 40 mg/kg intravenous,FIG. 3 vs 4,50 mg/kg
same,intraduodenal dose causing a pharmacological effect substantially similar to 400 mg/kg intragastrally,"FIGS. 1, 2 vs 4",100 mg/kg
same,intraduodenal dose expected to cause an effect substantially similar to IV 20-30 mg/kg,extrapolated from FIGS. 1-4,about 40 mg/kg
same,onset of sedative effect,intraduodenal 20-400 mg/kg,Within five minutes
same,behavioral effect following onset of sedation,"intraduodenal, higher dose groups",loss of consciousness in the higher dose groups
same,behavioral effect,intravenous infusion 5-40 mg/kg over 10 minutes,rapid-onset dose-dependent sedated/anesthetized state
same,duration of sedated/anesthetized state,intravenous vs oral administration,shorter durations as compared to oral administration
same,oral bioavailability (conclusion of study),oral,orally bioavaliable
same,behavioral effect compared to vehicle,oral 100-200 mg/kg,mild to moderate sedation
same,duration of mild to moderate sedation,"oral 100-200 mg/kg, printed 'and longer'",1 to 2 h
same,behavioral effect following onset of sedation,oral 300 and 400 mg/kg dose groups,loss of consciousness
same,onset of sedated behavior after dosing,oral gavage 100-400 mg/kg,5 to 10 min
same,duration of loss of consciousness,"oral, highest dose group",up to 1 hour
same,onset of sedated behavior after oral gavage,"oral/intragastric, 35 mg/ml w/v aqueous solution, FIG. 1",5 to 20 min
